Patent US8163732B2, “Tricyclic heteroaryl compounds useful as inhibitors of Janus kinase” (Vertex Pharmaceuticals Incorporated, priority 2005, dated 2012)

How the values were obtained:
JAK-3 = biological target: T1, JAK-3 (Homo sapiens, UniProt P52333); experiment: JAK-3 inhibition assay; type: biochemical
T1 sequence (P52333 1-1124): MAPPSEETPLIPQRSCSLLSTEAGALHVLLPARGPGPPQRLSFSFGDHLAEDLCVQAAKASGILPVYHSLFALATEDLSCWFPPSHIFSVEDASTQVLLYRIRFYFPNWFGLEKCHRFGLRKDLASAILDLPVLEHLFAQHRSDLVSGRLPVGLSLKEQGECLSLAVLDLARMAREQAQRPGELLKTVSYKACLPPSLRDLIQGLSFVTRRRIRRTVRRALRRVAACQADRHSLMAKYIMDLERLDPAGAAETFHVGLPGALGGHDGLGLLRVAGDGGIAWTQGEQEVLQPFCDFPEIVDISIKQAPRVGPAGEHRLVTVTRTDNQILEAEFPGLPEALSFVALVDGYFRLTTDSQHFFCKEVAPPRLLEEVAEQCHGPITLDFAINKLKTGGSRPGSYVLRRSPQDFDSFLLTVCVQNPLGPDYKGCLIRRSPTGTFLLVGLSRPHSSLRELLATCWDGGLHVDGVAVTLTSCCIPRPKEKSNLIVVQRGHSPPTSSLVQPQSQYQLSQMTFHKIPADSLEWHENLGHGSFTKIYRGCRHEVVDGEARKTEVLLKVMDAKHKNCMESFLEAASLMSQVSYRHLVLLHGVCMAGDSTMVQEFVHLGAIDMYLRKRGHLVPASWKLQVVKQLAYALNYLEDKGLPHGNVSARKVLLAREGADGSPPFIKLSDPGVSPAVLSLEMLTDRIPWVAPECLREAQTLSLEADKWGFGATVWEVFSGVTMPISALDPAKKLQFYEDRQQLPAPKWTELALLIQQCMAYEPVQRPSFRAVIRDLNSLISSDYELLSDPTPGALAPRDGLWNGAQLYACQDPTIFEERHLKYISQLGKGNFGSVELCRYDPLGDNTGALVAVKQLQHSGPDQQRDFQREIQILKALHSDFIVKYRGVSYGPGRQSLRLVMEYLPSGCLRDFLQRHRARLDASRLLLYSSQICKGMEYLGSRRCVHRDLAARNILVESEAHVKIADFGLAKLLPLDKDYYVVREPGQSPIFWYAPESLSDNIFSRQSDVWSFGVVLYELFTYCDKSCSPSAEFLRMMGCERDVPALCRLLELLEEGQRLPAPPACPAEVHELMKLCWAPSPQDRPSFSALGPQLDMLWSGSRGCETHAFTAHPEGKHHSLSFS
Description: Compounds were screened for their ability to inhibit JAK using the assay shown below. Reactions were carried out in a kinase buffer containing 100 mM HEPES (pH 7.4), 1 mM DTT, 10 mM MgCl2, 25 mM NaCl, and 0.01% BSA.
Substrate concentrations in the assay were 5 μM ATP (200 μCi/μmole ATP) and 1 μM poly(Glu)4Tyr. Reactions were carried out at 25° C. and 1 nM JAK-3.
To each well of a 96 well polycarbonate plate was added 1.5 μL of a candidate JAK-3 inhibitor along with 50 μL of kinase buffer containing 2 μM poly(Glu)4Tyr and 10 μM ATP. This was then mixed and 50 μL of kinase buffer containing 2 nM JAK-3 enzyme was added to start the reaction. After 20 minutes at room temperature (25° C.), the reaction was stopped with 50 μL of 20% trichloroacetic acid (TCA) that also contained 0.4 mM ATP. The entire contents of each well were then transferred to a 96 well glass fiber filter plate using a TomTek Cell Harvester. After washing, 60 μL of scintillation fluid was added and ^33P incorporation detected on a Perkin Elmer TopCount. After removing the mean background values for all of the data points, the data were fit using Prism software to obtain a Ki value (app).

JAK-2 = JAK-2 (Homo sapiens, UniProt O60674); experiment: JAK-2 inhibition assay; type: biochemical
Chain of JAK-2 (O60674 whole entry): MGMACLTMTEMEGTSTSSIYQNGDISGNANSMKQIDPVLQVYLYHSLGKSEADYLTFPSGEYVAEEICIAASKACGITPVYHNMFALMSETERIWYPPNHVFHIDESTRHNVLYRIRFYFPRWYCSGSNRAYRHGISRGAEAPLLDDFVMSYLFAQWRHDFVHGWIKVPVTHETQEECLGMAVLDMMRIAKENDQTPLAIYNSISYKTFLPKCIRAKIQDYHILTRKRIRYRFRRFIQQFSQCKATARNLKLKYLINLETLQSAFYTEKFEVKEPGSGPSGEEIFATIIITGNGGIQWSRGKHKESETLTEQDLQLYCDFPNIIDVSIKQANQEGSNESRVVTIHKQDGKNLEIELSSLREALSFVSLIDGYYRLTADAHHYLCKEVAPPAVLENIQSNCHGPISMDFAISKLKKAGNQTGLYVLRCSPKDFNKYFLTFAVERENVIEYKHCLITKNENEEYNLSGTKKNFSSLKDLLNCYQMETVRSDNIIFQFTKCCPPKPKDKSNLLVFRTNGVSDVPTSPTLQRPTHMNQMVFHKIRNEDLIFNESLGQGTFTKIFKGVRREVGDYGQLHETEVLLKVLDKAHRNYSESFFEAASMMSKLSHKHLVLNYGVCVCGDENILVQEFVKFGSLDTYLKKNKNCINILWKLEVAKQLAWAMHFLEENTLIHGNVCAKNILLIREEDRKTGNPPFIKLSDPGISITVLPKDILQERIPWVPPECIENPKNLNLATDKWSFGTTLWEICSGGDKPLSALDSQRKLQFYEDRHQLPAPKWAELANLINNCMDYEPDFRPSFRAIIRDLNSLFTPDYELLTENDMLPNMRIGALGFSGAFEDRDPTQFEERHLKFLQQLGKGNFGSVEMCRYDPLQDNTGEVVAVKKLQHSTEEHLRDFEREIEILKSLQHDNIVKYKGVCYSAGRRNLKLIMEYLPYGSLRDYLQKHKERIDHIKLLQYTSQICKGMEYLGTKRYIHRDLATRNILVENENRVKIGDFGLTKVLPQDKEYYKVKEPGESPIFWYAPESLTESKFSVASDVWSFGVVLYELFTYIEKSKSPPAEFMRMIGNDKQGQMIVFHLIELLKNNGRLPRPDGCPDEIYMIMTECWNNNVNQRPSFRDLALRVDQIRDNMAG

| Ki (JAK-3) [nM] | Ki (JAK-2) [nM] | Compound |
| --- | --- | --- |
| ≤ 250 | < 250 | Oc1ccc([C@H]2Nc3ccccc3-c3ccnc4[nH]cc2c34)c(Cl)c1 [Compound 62] |
| ≤ 250 | < 250 | Oc1ccc(C2=Nc3ccccc3-c3ccnc4[nH]cc2c34)c(Cl)c1 [Compound 63] |
| ≤ 250 | < 250 | COc1cc(C2Nc3ccccc3-c3ccnc4[nH]cc2c34)cc(O)c1O (centres unmarked) [Compound 64] |
| ≤ 250 | < 250 | Oc1ccc(C2Nc3ccccc3-c3ccnc4[nH]cc2c34)cc1O (centres unmarked) [Compound 66] |
| ≤ 250 | < 250 | Oc1c(Cl)cc(C2Nc3ccccc3-c3ccnc4[nH]cc2c34)cc1Cl (centres unmarked) [Compound 67] |
| ≤ 250 | < 250 | COc1cc(C2Nc3ccccc3-c3ccnc4[nH]cc2c34)cc(F)c1O (centres unmarked) [Compound 68] |
| ≤ 250 | < 250 | Oc1cccc(C2Nc3ccccc3-c3ccnc4[nH]cc2c34)c1O (centres unmarked) [Compound 69] |
| 250 to 2500 | < 250 | COc1ccc(C2Nc3ccccc3-c3ccnc4[nH]cc2c34)c(Cl)c1O (centres unmarked) [Compound 70] |
| ≤ 250 | < 250 | O=[N+]([O-])c1cc(O)ccc1C1Nc2ccccc2-c2ccnc3[nH]cc1c23 (centres unmarked) [Compound 71] |
| 250 to 2500 | > 2500 | Oc1ccc(O)c(C2Nc3ccccc3-c3ccnc4[nH]cc2c34)c1 (centres unmarked) [Compound 72] |
| ≤ 250 | < 250 | COc1cc(C2Nc3ccccc3-c3ccnc4[nH]cc2c34)ccc1O (centres unmarked) [Compound 73] |
| ≤ 250 | < 250 | Oc1ccc(C2Nc3ccccc3-c3ccnc4[nH]cc2c34)cc1Cl (centres unmarked) [Compound 74] |
| ≤ 250 | < 250 | Oc1ccc(C2Nc3ccccc3-c3ccnc4[nH]cc2c34)cc1I (centres unmarked) [Compound 75] |
| ≤ 250 | < 250 | COc1cc(C2Nc3ccccc3-c3ccnc4[nH]cc2c34)c(Br)cc1O (centres unmarked) [Compound 76] |
| 250 to 2500 | 250 to 2500 | Oc1c(Br)cc(C2Nc3ccccc3-c3ccnc4[nH]cc2c34)cc1Br (centres unmarked) [Compound 78] |
| 250 to 2500 | 250 to 2500 | Cc1cc(C2Nc3ccccc3-c3ccnc4[nH]cc2c34)cc(C)c1O (centres unmarked) [Compound 79] |
| > 2500 | > 2500 | Oc1ncc(C2Nc3ccccc3-c3ccnc4[nH]cc2c34)c(O)n1 (centres unmarked) [Compound 80] |

Second part, the compound before the results:

| Compound | Ki (JAK-3) [nM] | Ki (JAK-2) [nM] |
| --- | --- | --- |
| Oc1ccccc1C1Nc2ccccc2-c2ccnc3[nH]cc1c23 (centres unmarked) [Compound 20] | 250 to 2500 | 250 to 2500 |
| Brc1ccccc1C1Nc2ccccc2-c2ccnc3[nH]cc1c23 (centres unmarked) [Compound 21] | 250 to 2500 | 250 to 2500 |
| c1ccc2c(c1)NC(c1ccc3c(c1)OCO3)c1c[nH]c3nccc-2c13 (centres unmarked) [Compound 22] | 250 to 2500 | < 250 |
| O=C(O)C1Nc2ccccc2-c2ccnc3[nH]cc1c23 (centres unmarked) [Compound 23] | 250 to 2500 | 250 to 2500 |
| Fc1cccc(C2Nc3ccccc3-c3ccnc4[nH]cc2c34)c1F (centres unmarked) [Compound 25] | 250 to 2500 | < 250 |
| Fc1ccc(C2Nc3ccccc3-c3ccnc4[nH]cc2c34)c(F)c1 (centres unmarked) [Compound 26] | 250 to 2500 | < 250 |
| Fc1ccc(F)c(C2Nc3ccccc3-c3ccnc4[nH]cc2c34)c1 (centres unmarked) [Compound 27] | ≤ 250 | < 250 |
| Fc1cc(F)cc(C2Nc3ccccc3-c3ccnc4[nH]cc2c34)c1 (centres unmarked) [Compound 28] | 250 to 2500 | 250 to 2500 |
| Fc1ccc(F)c(C2Nc3ccccc3-c3ccnc4[nH]cc2c34)c1F (centres unmarked) [Compound 30] | ≤ 250 | < 250 |
| Fc1cc(F)c(C2Nc3ccccc3-c3ccnc4[nH]cc2c34)cc1F (centres unmarked) [Compound 31] | 250 to 2500 | < 250 |
| Fc1ccc(C2Nc3ccccc3-c3ccnc4[nH]cc2c34)c(Cl)c1 (centres unmarked) [Compound 32] | > 2500 | 250 to 2500 |
| Fc1cccc(Cl)c1C1Nc2ccccc2-c2ccnc3[nH]cc1c23 (centres unmarked) [Compound 33] | 250 to 2500 | 250 to 2500 |
| Fc1cccc(C(F)(F)F)c1C1Nc2ccccc2-c2ccnc3[nH]cc1c23 (centres unmarked) [Compound 34] | 250 to 2500 | 250 to 2500 |
| O=[N+]([O-])c1ccccc1C1Nc2ccccc2-c2ccnc3[nH]cc1c23 (centres unmarked) [Compound 35] | 250 to 2500 | 250 to 2500 |
| Fc1ncccc1C1Nc2ccccc2-c2ccnc3[nH]cc1c23 (centres unmarked) [Compound 36] | 250 to 2500 | 250 to 2500 |
| c1ccc(C2Nc3ccccc3-c3ccnc4[nH]cc2c34)nc1 (centres unmarked) [Compound 37] | > 2500 | > 2500 |
| c1cncc(C2Nc3ccccc3-c3ccnc4[nH]cc2c34)c1 (centres unmarked) [Compound 38] | 250 to 2500 | 250 to 2500 |
| Fc1cc(C2Nc3ccccc3-c3ccnc4[nH]cc2c34)ccc1Cl (centres unmarked) [Compound 39] | 250 to 2500 | < 250 |
| Clc1cccc(C2Nc3ccccc3-c3ccnc4[nH]cc2c34)c1 (centres unmarked) [Compound 40] | 250 to 2500 | 250 to 2500 |

| Compound | Ki (JAK-3) [nM] | Ki (JAK-2) [nM] |
| --- | --- | --- |
| Clc1cccc(C2Nc3ccccc3-c3ccnc4[nH]cc2c34)c1Cl (centres unmarked) [Compound 41] | > 2500 | 250 to 2500 |
| Clc1cccc(Cl)c1C1Nc2ccccc2-c2ccnc3[nH]cc1c23 (centres unmarked) [Compound 42] | 250 to 2500 | 250 to 2500 |
| c1ccc2c(c1)NC(c1ccncc1)c1c[nH]c3nccc-2c13 (centres unmarked) [Compound 43] | > 2500 | 250 to 2500 |
| c1ccc2c(c1)N=C(c1ccncc1)c1c[nH]c3nccc-2c13 [Compound 44] | 250 to 2500 | < 250 |
| COc1ccc(C2Nc3ccccc3-c3ccnc4[nH]cc2c34)cc1F (centres unmarked) [Compound 45] | 250 to 2500 | < 250 |
| Oc1ccc(C2Nc3ccccc3-c3ccnc4[nH]cc2c34)c(Cl)c1 (centres unmarked) [Compound 46] | ≤ 250 | < 250 |
| Fc1cccc(F)c1C1Nc2ncccc2-c2ccnc3[nH]cc1c23 (centres unmarked) [Compound 47] | 250 to 2500 | 250 to 2500 |
| Fc1cccc(C2Nc3ncccc3-c3ccnc4[nH]cc2c34)c1 (centres unmarked) [Compound 48] | 250 to 2500 | 250 to 2500 |
| Fc1cccc(F)c1C1Nc2ccccc2-c2ncnc3[nH]cc1c23 (centres unmarked) [Compound 49] | 250 to 2500 | < 250 |
| Fc1cccc(C2Nc3ccccc3-c3ncnc4[nH]cc2c34)c1 (centres unmarked) [Compound 50] | > 2500 | 250 to 2500 |
| CC1=Nc2ccccc2-c2ccnc3[nH]cc1c23 [Compound 51] | 250 to 2500 | 250 to 2500 |
| Fc1cccc(F)c1C1Nc2ccccc2-c2c(Cl)cnc3[nH]cc1c23 (centres unmarked) [Compound 52] | 250 to 2500 | 250 to 2500 |
| Oc1ccc(C2Nc3ccccc3-c3c(Cl)cnc4[nH]cc2c34)c(Cl)c1 (centres unmarked) [Compound 53] | ≤ 250 | < 250 |
| Fc1ccc(F)c(C2Nc3ccccc3-c3c(Cl)cnc4[nH]cc2c34)c1F (centres unmarked) [Compound 54] | 250 to 2500 | < 250 |
| Oc1ccc(C2Nc3ccccc3-c3ncnc4[nH]cc2c34)c(Cl)c1 (centres unmarked) [Compound 55] | ≤ 250 | < 250 |
| Fc1ccc(F)c(C2Nc3ccccc3-c3ncnc4[nH]cc2c34)c1F (centres unmarked) [Compound 56] | ≤ 250 | < 250 |
| Oc1ccc(C2Nc3ncccc3-c3ccnc4[nH]cc2c34)c(Cl)c1 (centres unmarked) [Compound 57] | ≤ 250 | < 250 |
| OCCCCC1=Nc2ccccc2-c2ccnc3[nH]cc1c23 [Compound 58] | 250 to 2500 | 250 to 2500 |
| OCCCC1Nc2ccccc2-c2ccnc3[nH]cc1c23 (centres unmarked) [Compound 60] | > 2500 | 250 to 2500 |
